Earlier results in patent US20080248136A1, “ACUTE AND CHRONIC HEARTBURN COMPOSITION AND METHOD” (IOMEDIX DEVELOPMENT INTERNATIONAL SRL, priority 2006, published 2008).

Key:
[1] = test system: mitogen-activated protein kinase signaling; conditions: signaling stimulated by H. Pylori
[2] = mice
[3] = in vivo

## C=C(C)[C@@H]1CC=C(C(=O)O)CC1 [perillic acid]
[1]
  effect on mitogen-activated protein kinase signaling: inhibits

## C=C(C)[C@H]1CC=C(C)CC1 [limonene]
[2]
  antinociceptive activity: has antinociceptive activity
After 2 days of administration
  participants achieving complete relief of symptoms: 20%
Daily or every other day administration, after 14 days
  severity of gastric and esophageal reflux disorder symptoms, as evaluated by subjects: near complete relief of the symptoms
In certain cases
  lasting alleviation of symptoms of gastric and esophageal reflux disorders: alleviated permanently

## [Mg+2].[OH-].[OH-] [magnesium hydroxide]
[3]
  esophageal pH: significantly increased
  gastric pH versus placebo: increased gastric pH above placebo levels

## O=C([O-])[O-].[Ca+2] [calcium carbonate]
[3]
  esophageal pH: significantly increased
  gastric pH versus placebo: remained at or below placebo levels
